How the values were obtained:
[1] = system: ED40515 (+) (non-virus-producing ATL cell line); experiment: Cellular proliferation (MTS assay), ED40515 (+); format: cell-based
Experimental: (§1) Each nucleoside analogue reverse transcriptase inhibitor was added to the medium for cells at a final concentration of 100 μM. Cells were seeded on a 96-well plate at a concentration of 1×10^4 cells/100 μL/well and cultured for 4 hours (Day 0), 48 hours (Day 2) or 96 hours (Day 4). A medium added DMSO (solvent control) alone was used as a control. Cellular proliferation was examined by MTS assay. Specifically, after the cells were cultured for a predetermined time, a reagent for cellular proliferation test, Aqueous One Solution Cell Proliferation (trade name, manufactured by Promega), was added to the cells. Four hours later, absorbance at 490 nm was measured. The cellular proliferation was represented by a ratio relative to that of the control (solvent control) on Day 0 that was regarded as 1.
(§2) This example used HTLV-1-infected cell lines (non-virus-producing ATL cell lines): ED40515 (−), ED40515 (+), and ATL43T (all were provided by Prof. Michiyuki Maeda who produced the cells); and SYK-11L (+) (prepared in the laboratory of the inventors).
(§3) The six types of nucleoside analogue reverse transcriptase inhibitors as used in Example 1 were used and cellular proliferation was examined in the same manner as in Example 1. […]

[2] = system: TDP1-knocked-down cells (Jurkat); experiment: Cellular proliferation (MTS) of TDP1-knocked-down cells; format: cell-based, human; details: TDP1 siRNA-introduced Jurkat versus control siRNA-introduced cells; 300 μM; 48 hours
Experimental: The cells were cultured for 48 hours. MTS assay was performed using a reagent for cellular proliferation test, Aqueous One Solution Cell Proliferation (trade name, manufactured by Promega), in the same manner as in Example 1.

[3] = system: ATL43T (non-virus-producing ATL cell line); experiment: Cellular proliferation (MTS assay), ATL43T; format: cell-based
Experimental: as §1, §2, §3

[4] = system: NCI_H522 (lung cancer cell line lacking TDP1 expression); experiment: Cellular proliferation (MTS) of lung cancer cell line NCI_H522; format: cell-based; details: 100, 200 or 300 μM, 72 hours
Experimental: Lung cancer cell lines lacking TDP1 expression, HOP—62 and NCI_H522, were used. NCI_H1299, a lung cancer cell line expressing TDP1, was used as a control. HOP—62 and NCI_H522 were provided by Dr. Pommier (DNA Repair. 2014 January; 13: 1-9).
Abacavir was added to each of the cell lines at a concentration of 0 μM (DMSO was added instead of abacavir), 100 μM, 200 μM or 300 μM. The cells were seeded on a 96-well plate at a concentration of 3×10^3 cells/100 μL/well and cultured for 4 hours or 72 hours. After the culture of a predetermined time, MTS assay was performed using a reagent for cellular proliferation, test, Aqueous One Solution Cell Proliferation (trade name, manufactured by Promega), in the same manner as in Example 1. The cellular proliferation was represented by a ratio relative to that of the control (solvent control) on Day 0 that was regarded as 100%.

In the case of `Nc1nc(NC2CC2)c2ncn([C@H]3C=C[C@@H](CO)C3)c2n1` [abacavir, (−)-(1S,4R)-4-[2-amino-6-(cyclopropylamino)-9H-purin-9-yl]-2-cyclopentene-1-methanol], the cellular proliferation ([1]; 100 μM) is reported as “strong suppressive effect”, the “cellular proliferation, dose dependence” value ([1]; 10-100 μM, Day 0, 2, 4) is reported as “suppressed cellular proliferation of all the cell lines in a dose-dependent manner” and the “cellular proliferation relative to abacavir-non-treated cells (100%)” value [2] is reported as “significantly lower”. For the same compound, the cellular proliferation ([3]; 100 μM) was “strong suppressive effect”, the “cellular proliferation, dose dependence” value ([3]; 10-100 μM, Day 0, 2, 4) was “suppressed cellular proliferation of all the cell lines in a dose-dependent manner” and the cellular proliferation [4] was “suppressed cellular proliferation of HOP—62 and NCI_H522 lacking TDP1 expression in a concentration dependent manner”.

From patent US20160000796A1, “PHARMACEUTICAL COMPOSITION FOR USE IN PREVENTION OR TREATMENT OF CANCER” (priority 2013, published 2016)
